In ChEMBL document CHEMBL1201862, “PubChem BioAssay data set” (2004):
Activity calls are given as the source filed them.

What was measured:
[1] = molecular target: T1, Polyadenylate-binding protein 1 (Homo sapiens, UniProt P11940); test: MLLE domain peptide-binding blockers, IC50 – biochemical, fluorescence polarization, FITC-PAM2 peptide, dose response (AID 602259); assay type: functional; conditions: read-out: IC50_Mean
[2] = molecular target: T1, Polyadenylate-binding protein 1; test: MLLE binding blockers, Cy5 peptide tracer – biochemical, fluorescence polarization, Cy5-PAM2 peptide, secondary, miRNA deadenylation inhibitor project, dose response (AID 602260); assay type: functional; conditions: read-out: IC50_Mean
[3] = microbe, parasite or virus in culture; assay type: functional; conditions: Mycobacterium tuberculosis
Paired box protein Pax-8 = Paired box protein Pax-8 (Homo sapiens, UniProt Q06710); test: PAX8 transcriptional activity inhibition in RMG-I – RMG-I cells, luciferase, cherry-pick, dose response (AID 687027); assay type: functional, cell-based;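 further: luciferase reporter driven by Pax8 target thyroperoxidase promoter measured by SteadyGlo luminescence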
[4] = HEK-293T cell viability reduction – luminescence, B-cell screen hits, cytotoxicity control for BCR NF-kB inhibitor project, dose response (AID 489021); assay type: functional, cell-based;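 further: HEK-293T cells carrying an NF-kB luciferase reporter; cells exposed to compound for about 14 hours before viability readout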
[5] = molecular target: T2, Rac GTPase-activating protein 1 (Homo sapiens, UniProt Q9H0H5); test: blockers of MgcRacGAP-driven Rac1 GTP hydrolysis – biochemical, ADP Hunter fluorescence, primary and confirmatory, confirmation (AID 624330); assay type: functional
T2 sequence (Q9H0H5 whole entry): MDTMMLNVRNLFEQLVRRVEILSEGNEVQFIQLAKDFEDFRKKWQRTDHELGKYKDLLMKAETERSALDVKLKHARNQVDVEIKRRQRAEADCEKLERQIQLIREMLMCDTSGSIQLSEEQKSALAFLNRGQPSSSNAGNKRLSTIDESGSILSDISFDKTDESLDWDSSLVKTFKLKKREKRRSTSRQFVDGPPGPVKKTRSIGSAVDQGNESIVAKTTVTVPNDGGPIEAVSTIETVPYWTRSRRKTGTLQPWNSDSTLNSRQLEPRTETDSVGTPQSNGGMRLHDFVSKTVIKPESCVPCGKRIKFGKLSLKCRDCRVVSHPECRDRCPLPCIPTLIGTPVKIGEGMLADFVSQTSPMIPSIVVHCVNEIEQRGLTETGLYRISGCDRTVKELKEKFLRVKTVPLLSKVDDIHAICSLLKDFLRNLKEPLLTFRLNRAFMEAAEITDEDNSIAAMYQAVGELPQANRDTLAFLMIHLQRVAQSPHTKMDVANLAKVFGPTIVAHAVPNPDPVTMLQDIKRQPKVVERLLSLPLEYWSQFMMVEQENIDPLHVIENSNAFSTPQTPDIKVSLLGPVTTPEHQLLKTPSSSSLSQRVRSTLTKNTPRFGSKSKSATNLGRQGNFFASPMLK

[6] = viability of uninfected HEp-2 cells – cell-based, HTS, cytotoxicity control for RSV inhibitor project, dose response (AID 2410); assay type: functional; conditions: human respiratory syncytial virus
[7] = molecular target: FAD-linked sulfhydryl oxidase ALR (Homo sapiens, UniProt P55789); test: ALR-catalysed DTT oxidation blockers – biochemical, H2O2 detection, luminescence, cherry-pick, dose response (AID 493248)
cells [8] = assay type: functional, cell-based
cells [9] = assay type: functional, cell-based; remark: listed apart in the source
[10] = viability of PTEN-deleted HCT116 cells – cell-based, HCT116 PTEN knockout, dose response (AID 1047); assay type: functional;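 further: HCT116 colon tumor cells with PTEN knocked out; cells exposed to compound for 60 hours before readout; potency for loss of cell viability measured by luminescence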
[11] = viability of HCT116 lacking mutant beta-catenin – cell-based, human colon tumor, dose response (AID 1045); assay type: functional;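 further: HCT116 colon tumor cells with beta catenin knocked out; cells exposed to compound for 60 hours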
[12] = Luminescence Cell-Based Dose Retest to Confirm Inhibitors of Cancer Stem Cells. [Related pubchem assays (depositor defined):AID2717, AID2721]; assay type: functional; conditions: Homo sapiens
[13] = molecular target: T3, Heat shock factor protein 1 (Mus musculus, UniProt P38532); test: decrease of HSF1-responsive luciferase luminescence – cell-based, NIH3T3, dose retest, confirmation (AID 2382); assay type: functional;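 further: NIH3T3 fibroblasts with HSF1-driven luciferase reporter stressed by proteasome inhibitor MG132; luminescence from HSF1-driven luciferase expression after 8 hours of MG132 stress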
T3 sequence (P38532 whole entry): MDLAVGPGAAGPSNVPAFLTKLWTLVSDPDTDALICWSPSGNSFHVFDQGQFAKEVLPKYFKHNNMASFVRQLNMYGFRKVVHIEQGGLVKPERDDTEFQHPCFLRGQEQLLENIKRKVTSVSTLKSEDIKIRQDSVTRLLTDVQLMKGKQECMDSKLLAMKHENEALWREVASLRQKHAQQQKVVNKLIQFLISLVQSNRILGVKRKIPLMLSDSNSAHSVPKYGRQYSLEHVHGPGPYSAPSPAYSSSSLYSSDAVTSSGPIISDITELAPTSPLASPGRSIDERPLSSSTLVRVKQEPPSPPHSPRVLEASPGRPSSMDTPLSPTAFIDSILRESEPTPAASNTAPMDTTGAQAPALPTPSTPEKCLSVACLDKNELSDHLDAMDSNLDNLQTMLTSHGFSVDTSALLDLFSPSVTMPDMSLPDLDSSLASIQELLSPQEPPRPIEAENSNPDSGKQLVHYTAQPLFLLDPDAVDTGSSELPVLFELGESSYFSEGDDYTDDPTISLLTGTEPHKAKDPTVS

Cytochrome P450 2C9 = Cytochrome P450 2C9 (Homo sapiens, UniProt P11712)
Cytochrome P450 1A2 = molecular target: T4, Cytochrome P450 1A2 (Homo sapiens, UniProt P05177);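 further: PubChem cytochrome P450 panel assay, CYP1A2 panel member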
T4 sequence (P05177 whole entry): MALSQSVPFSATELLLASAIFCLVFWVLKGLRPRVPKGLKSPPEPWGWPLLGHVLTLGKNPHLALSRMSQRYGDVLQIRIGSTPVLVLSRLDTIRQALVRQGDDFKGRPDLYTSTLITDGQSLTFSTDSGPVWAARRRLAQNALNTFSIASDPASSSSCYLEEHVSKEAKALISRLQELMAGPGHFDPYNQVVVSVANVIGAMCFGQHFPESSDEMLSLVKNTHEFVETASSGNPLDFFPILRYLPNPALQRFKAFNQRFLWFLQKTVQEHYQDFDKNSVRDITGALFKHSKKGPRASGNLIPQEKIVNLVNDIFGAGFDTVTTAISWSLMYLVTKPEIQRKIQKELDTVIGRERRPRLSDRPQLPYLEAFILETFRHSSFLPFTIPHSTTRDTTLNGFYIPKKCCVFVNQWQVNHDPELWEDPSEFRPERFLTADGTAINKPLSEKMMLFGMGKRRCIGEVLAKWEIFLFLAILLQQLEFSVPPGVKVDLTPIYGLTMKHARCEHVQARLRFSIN

INS1 = test: INS-1E survival protection against cytokine death – cell-based, luminescence, retest, dose response (AID 449756); assay type: functional; conditions: Rattus norvegicus;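 further: cell death triggered by IL-1 beta plus TNF-alpha plus IFN-gamma mixture; protective hits raise ATP signal compared with cytokine alone wells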
Cytochrome P450 2C19 = Cytochrome P450 2C19 (Homo sapiens, UniProt P33261); test: Cytochrome panel assay with activity outcomes. Panel member name: p450-cyp2c19 Compounds with AC50 equal or less than 10 uM are considered active; assay type: functional; conditions: read-out: AC50
Protein skinhead-1 = molecular target: T5, Protein skinhead-1 (Caenorhabditis elegans, UniProt P34707); assay type: functional
T5 sequence (P34707 whole entry): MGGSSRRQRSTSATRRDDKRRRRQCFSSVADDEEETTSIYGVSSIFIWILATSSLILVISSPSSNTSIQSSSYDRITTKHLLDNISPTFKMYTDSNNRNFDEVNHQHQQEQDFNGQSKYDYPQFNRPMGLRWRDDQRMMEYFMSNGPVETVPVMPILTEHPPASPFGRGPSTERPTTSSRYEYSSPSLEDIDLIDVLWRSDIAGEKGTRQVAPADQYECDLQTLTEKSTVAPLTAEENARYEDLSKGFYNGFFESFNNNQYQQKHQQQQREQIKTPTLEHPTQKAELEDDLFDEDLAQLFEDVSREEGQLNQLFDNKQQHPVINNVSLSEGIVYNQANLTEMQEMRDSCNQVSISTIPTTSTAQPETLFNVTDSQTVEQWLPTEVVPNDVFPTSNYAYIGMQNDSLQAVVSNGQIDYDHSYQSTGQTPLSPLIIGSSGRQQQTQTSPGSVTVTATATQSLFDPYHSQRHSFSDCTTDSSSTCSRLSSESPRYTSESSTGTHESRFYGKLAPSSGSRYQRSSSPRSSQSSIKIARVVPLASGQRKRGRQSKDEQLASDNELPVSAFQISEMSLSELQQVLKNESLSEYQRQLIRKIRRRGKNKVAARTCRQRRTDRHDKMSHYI

T1 sequence (P11940 whole entry, the tested form may be a part): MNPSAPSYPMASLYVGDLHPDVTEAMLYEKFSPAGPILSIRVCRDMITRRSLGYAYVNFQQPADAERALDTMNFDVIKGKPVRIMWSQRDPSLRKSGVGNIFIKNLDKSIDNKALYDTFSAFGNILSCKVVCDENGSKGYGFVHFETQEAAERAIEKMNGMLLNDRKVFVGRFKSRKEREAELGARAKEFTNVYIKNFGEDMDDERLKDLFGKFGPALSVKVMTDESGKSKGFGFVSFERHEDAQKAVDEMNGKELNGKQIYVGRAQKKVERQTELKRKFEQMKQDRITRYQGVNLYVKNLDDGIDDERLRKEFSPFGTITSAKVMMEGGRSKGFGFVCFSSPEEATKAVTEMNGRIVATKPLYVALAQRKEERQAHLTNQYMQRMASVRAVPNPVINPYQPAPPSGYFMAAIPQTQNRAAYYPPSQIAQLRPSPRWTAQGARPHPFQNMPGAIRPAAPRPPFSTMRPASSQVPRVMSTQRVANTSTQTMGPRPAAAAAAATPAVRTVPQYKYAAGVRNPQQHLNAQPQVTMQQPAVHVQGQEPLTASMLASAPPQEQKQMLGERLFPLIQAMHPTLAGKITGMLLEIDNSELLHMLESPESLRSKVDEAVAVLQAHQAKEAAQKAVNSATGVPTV
Sequence of Paired box protein Pax-8 (Q06710 whole entry): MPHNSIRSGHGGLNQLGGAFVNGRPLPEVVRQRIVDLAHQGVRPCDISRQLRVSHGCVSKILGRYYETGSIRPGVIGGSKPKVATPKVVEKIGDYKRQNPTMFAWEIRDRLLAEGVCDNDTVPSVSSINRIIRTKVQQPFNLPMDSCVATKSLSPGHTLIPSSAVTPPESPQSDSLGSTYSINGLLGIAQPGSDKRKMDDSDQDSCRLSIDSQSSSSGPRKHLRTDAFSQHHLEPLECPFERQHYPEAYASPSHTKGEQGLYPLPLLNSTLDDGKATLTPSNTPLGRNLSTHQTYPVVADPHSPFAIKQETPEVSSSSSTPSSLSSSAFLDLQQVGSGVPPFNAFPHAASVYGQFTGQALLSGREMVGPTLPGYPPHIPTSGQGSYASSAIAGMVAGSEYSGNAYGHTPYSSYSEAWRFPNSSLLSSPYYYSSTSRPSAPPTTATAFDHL
Sequence of Cytochrome P450 2C9 (P11712 whole entry): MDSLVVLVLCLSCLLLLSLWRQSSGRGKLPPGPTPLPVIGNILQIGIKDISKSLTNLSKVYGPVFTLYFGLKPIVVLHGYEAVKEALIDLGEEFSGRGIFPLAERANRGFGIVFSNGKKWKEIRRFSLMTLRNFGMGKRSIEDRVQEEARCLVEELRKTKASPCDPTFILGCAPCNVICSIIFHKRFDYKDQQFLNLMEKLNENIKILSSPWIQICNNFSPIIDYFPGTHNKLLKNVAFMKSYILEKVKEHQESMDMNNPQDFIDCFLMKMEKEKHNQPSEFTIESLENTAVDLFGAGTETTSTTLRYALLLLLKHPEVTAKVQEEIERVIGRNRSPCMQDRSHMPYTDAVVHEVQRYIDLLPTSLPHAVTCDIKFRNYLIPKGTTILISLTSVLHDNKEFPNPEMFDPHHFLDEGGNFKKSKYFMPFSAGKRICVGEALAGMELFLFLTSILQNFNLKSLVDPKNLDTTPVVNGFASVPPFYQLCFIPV
Sequence of Cytochrome P450 2C19 (P33261 whole entry): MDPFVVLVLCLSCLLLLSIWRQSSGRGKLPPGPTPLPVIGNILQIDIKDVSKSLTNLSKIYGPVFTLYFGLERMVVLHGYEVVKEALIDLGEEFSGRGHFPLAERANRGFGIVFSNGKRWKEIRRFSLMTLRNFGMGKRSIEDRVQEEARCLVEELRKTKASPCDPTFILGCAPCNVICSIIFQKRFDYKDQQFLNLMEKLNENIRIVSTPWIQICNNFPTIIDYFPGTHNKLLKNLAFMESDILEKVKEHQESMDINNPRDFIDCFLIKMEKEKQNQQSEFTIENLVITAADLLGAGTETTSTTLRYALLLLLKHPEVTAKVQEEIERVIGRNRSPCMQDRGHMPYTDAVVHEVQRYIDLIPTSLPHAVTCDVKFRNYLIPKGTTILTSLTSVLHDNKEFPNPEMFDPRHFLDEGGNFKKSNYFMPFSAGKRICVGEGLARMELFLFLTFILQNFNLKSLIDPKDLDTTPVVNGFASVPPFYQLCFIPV
Sequence of FAD-linked sulfhydryl oxidase ALR (P55789 whole entry): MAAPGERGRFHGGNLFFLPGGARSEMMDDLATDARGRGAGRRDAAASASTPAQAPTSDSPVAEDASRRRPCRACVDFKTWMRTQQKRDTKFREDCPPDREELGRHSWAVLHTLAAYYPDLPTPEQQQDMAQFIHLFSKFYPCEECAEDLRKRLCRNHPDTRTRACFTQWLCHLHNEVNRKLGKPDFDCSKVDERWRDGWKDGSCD

COc1cccc(NC(=O)CSC(N)=O)c1
IC50 [1]: > 66 µM (inactive) | IC50 [2]: > 66 µM (inactive)

CN1C(=S)SC(N(O)C(=O)Nc2ccc(Cl)c(Cl)c2)C1(C)C (centres undefined)
CC50 [3]: 38.9 µM (active)

C[C@H](CO)N1C[C@H](C)[C@@H](CN(C)C(=O)NC2CCCCC2)Oc2cc(C#Cc3ccc(F)cc3)ccc2S1(=O)=O
AC50 (Paired box protein Pax-8): 9.52 µM (active)

CC1CCN(CCCNC(=O)COc2cc(=O)n(C)c3ccccc23)CC1
IC50 [4]: > 80 µM (inactive)

COc1ccc(N2CCC(CN=C(S)Nc3cccc(C)c3)C2)cc1 (centres undefined)
IC50 [5]: 39.3 µM (active)

COC(=O)C1CCN(C(=O)COC(=O)/C=C/c2ccc(O)c(OC)c2)CC1
IC50 [5]: 49.7 µM (active)

O=C(CN1C(=O)c2ccccc2S1(=O)=O)c1ccc(O)c(O)c1
IC50 [5]: 175 µM (active)

CC[C@H](C)[C@@H]1O[C@@]2(C=CC1C)CC1C[C@@H](CC=C(C)C(O[C@H]3CC(OC)C(O[C@H]4CC(OC)C(O)C(C)O4)C(C)O3)C(C)C=CC=C3CO[C@@H]4C(O)C(C)=C[C@@H](C(=O)O1)[C@]34O)O2 (some centres undefined)
CC50 [3]: 15.9 µM (active)

CC(C)c1ccccc1NC(=O)c1cccc(NC(=O)c2ccccc2)c1
CC50 [6]: 20.3 µM (active)

CCc1cccc2c(C(=O)CCl)c[nH]c12
CC50 [3]: 24.4 µM (active)

O=C(CN1CCN(c2ccc(O)cc2)CC1)N(C1CC1)C1CCS(=O)(=O)C1 (centres undefined)
AC50 [7]: 0.238 µM (active) | IC50 [5]: 80.2 µM (active)

CS(=O)(=O)n1nc(-c2ccccc2)nc1NCc1ccco1
EC50 (cells [8]): > 350 µM (not active) | EC50 (cells [9]): > 350 µM (not active)

CCC(C)c1ccc2oc(-c3ccc(NC(=O)Cn4cnc5c(=O)n(C)c(=O)n(C)c54)cc3)nc2c1 (centres undefined)
EC50 [10]: 9.27 µM (active) | EC50 (cells [8]): 43.7 µM (active) | EC50 [11]: 8.52 µM (active) | EC50 (cells [9]): > 350 µM (not active)

COc1ccc(Br)cc1C(=O)NC(=S)Nc1cc(-c2nc3ccccc3[nH]2)ccc1C
IC50 [1]: > 66 µM (inactive) | AC50 [12]: > 195 µM (inactive) | IC50 [2]: > 66 µM (inactive)

CC(=O)C[C@H]1c2cc(F)ccc2S(=O)(=O)N1c1ccc(N(C)C)cc1
IC50 [5]: 119 µM (active) | EC50 [13]: 33.8 µM (active)

CCCCNC(=O)CN1C(=O)COc2ccc(S(=O)(=O)N3CCCCCC3)cc21
EC50 (cells [8]): > 350 µM (not active) | EC50 (cells [9]): > 350 µM (not active)

CC1CCN(C(=S)c2ccc(O)cc2)CC1
AC50 (Cytochrome P450 2C9): 39.8 µM (inconclusive) | IC50 [1]: > 66 µM (inactive) | AC50 (Cytochrome P450 1A2): 14.1 µM (inconclusive) | IC50 [2]: > 66 µM (inactive)

CCN(CC)S(=O)(=O)c1ccc(N/N=C/c2cc(OC)ccc2O)nc1
AC50 (INS1): 1.69 µM (active) | EC50 (cells [8]): 25.7 µM (active) | AC50 [12]: 4.47 µM (active) | EC50 (cells [9]): 302 µM (active)

COC(=O)c1cc(=O)n(Cc2ccc3c(c2)OCO3)/c(=N/c2ccc(F)cc2)s1
EC50 [10]: 27.9 µM (active) | CC50 [6]: 33.2 µM (active) | EC50 [11]: 26.2 µM (active)

Cc1ccccc1SCC(=O)OCC(=O)Nc1ccc(N(C)C)cc1
IC50 [5]: 66.7 µM (active)

COc1ccc(CN2CCCN(C)CC2)c(OC)c1C
IC50 [5]: 124 µM (active)

Cc1oc(C)c2c(=O)ccc3c(c12)OC(N)=C(C#N)C3c1ccccc1Cl (centres undefined)
CC50 [3]: > 40 µM (active)

FC(F)(F)c1cccc(NC(S)=NN=C(S)NCc2ccccc2)c1
IC50 [1]: > 66 µM (inactive) | IC50 [2]: > 66 µM (inactive)

COCCNCCOCCOc1ccc(Cl)c(C)c1
IC50 [5]: 138 µM (active)

CN(C)c1ccc(N=Nc2ccc(S(N)(=O)=O)cc2)cc1
EC50 (cells [8]): 3.13 µM (active) | EC50 (cells [9]): > 350 µM (not active)

CCOc1ccc(N(C(=O)/C=C/C(=O)Nc2cc(C)on2)C(C(=O)NC2CCCC2)c2ccccc2C)cc1 (centres undefined)
CC50 [3]: 20.2 µM (active) | AC50 (Cytochrome P450 2C19): 31.6 µM (inconclusive)

Nc1ccc(Nc2nc(-c3ccncc3)cs2)cc1
IC50 [5]: 9.36 µM (active)

Cc1onc(-c2ccccc2Cl)c1C(=O)Nc1sc2c(c1C(N)=O)CCC(C)C2 (centres undefined)
CC50 [6]: 19.3 µM (active)

CCOC(=O)C(/C=N/c1ccc(NC2=NCC(C)S2)cc1)=C(/O)OCC (centres undefined)
EC50 (cells [8]): > 350 µM (not active) | EC50 (cells [9]): > 350 µM (not active)

CC/C(=C\c1ccc(N(C)C)cc1)c1ccncc1
IC50 [5]: 30.2 µM (active) | IC50 (Protein skinhead-1): > 100 µM (inactive)

C[C@@H]1CN([C@@H](C)CO)C(=O)c2cc(NC(=O)Nc3ccc(C(F)(F)F)cc3)ccc2O[C@@H](C)CCCCO[C@@H]1CN(C)CC1CCCCC1
AC50 (Paired box protein Pax-8): 3.9 µM (active)

COc1ccc(CNc2ccc(S(N)(=O)=O)cc2)cc1
IC50 [1]: > 66 µM (inactive) | IC50 [2]: > 66 µM (inactive)

O=C(Nc1ccc2c(c1)Cc1ccccc1-2)c1cccnc1
CC50 [6]: 20.3 µM (active)

O=C(O)CCC(C(=O)O)N1C(=O)/C(=C2/C(=O)Nc3ccccc32)SC1=S (centres undefined)
IC50 [1]: > 66 µM (inactive) | IC50 [2]: > 66 µM (inactive)

CCOC(=O)C1SC2(C(F)(F)F)CC1(O)c1c(C)cc(C)nc1O2 (centres undefined)
IC50 [1]: > 66 µM (inactive) | IC50 [2]: > 66 µM (inactive)

CC(C)c1ccc(/C=N/N2CCN(c3ccccn3)CC2)cc1
CC50 [6]: 35.7 µM (active)

C=CCN1C(=O)/C(=C\c2ccc(Cl)cc2)N=C1SCC(=O)NC1CCCCC1
IC50 [1]: > 66 µM (inactive) | IC50 [2]: > 66 µM (inactive)
